Test results published in ChEMBL document CHEMBL5696442, “Discovery of type II inhibitors of TGFβ-activated kinase 1 (TAK1) and mitogen-activated protein kinase kinase kinase kinase 2 (MAP4K2)” (J Med Chem, 2015).
The source made the active and inactive calls. The rule behind the calls is not given here.

Experiments:
[1] = system: Fibroblast growth factor receptor 3 (Homo sapiens), P22607 [G697C]; assay: Inhibition of FGFR3 G697C mutant (unknown origin) at 10 uM by Ambit Kinomescan binding assay relative to control
[2] = Inhibition of […] K2 labeling site in human Huh-7 cells at 10 uM by KiNativ Profiling analysis relative to control; settings: condition cancer
[3] = molecular target: Casein kinase I isoform delta (Homo sapiens) (UniProt P48730); assay: Inhibition of CSNK1D (unknown origin) at 10 uM by Ambit Kinomescan binding assay
[4] = molecular target: Serine/threonine-protein kinase 26 (Homo sapiens) (UniProt Q9P289); assay: Inhibition of MST4 (unknown origin) at 10 uM by Ambit Kinomescan binding assay
[5] = molecular target: Microtubule-associated serine/threonine-protein kinase 2 (Homo sapiens) (UniProt Q6P0Q8); assay: Inhibition of MAST2 Lys2 labeling site in human A-375 cells at 5 uM by KiNativ Profiling analysis relative to control; type: cell-based
[6] = molecular target: Tyrosine-protein kinase Yes (Homo sapiens) (UniProt P07947); assay: Inhibition of YES ACT labeling site in human Huh-7 cells at 1 uM by KiNativ Profiling analysis relative to control; type: cell-based
Tyrosine-protein kinase Yes (Homo sapiens), sequence (P07947 2-543 limits assumed): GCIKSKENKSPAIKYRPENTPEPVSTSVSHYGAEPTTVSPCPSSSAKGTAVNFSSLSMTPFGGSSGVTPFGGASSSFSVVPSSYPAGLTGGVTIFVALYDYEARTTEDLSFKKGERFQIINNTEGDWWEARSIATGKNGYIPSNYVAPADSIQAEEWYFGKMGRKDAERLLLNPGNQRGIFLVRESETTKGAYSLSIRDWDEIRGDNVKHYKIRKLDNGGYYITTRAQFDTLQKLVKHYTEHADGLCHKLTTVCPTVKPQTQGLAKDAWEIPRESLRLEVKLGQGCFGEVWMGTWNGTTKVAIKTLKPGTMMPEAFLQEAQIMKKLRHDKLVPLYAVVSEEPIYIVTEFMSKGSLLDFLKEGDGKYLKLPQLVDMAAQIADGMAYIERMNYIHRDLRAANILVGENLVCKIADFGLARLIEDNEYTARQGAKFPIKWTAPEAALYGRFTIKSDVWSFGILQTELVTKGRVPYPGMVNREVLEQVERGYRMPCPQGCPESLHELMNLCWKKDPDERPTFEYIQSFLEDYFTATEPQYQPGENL

[7] = molecular target: Ribosomal protein S6 kinase alpha-3 (Homo sapiens) (UniProt P51812); assay: Inhibition of RSK2 Domain 2 K1 labeling site in human Huh-7 cells at 10 uM by KiNativ Profiling analysis relative to control; type: cell-based
[8] = molecular target: Wee1-like protein kinase (Homo sapiens) (UniProt P30291); assay: Inhibition of Wee1 K2 labeling site in human Huh-7 cells at 1 uM by KiNativ Profiling analysis relative to control; type: cell-based
Wee1-like protein kinase (Homo sapiens), sequence (P30291 whole entry, looked up): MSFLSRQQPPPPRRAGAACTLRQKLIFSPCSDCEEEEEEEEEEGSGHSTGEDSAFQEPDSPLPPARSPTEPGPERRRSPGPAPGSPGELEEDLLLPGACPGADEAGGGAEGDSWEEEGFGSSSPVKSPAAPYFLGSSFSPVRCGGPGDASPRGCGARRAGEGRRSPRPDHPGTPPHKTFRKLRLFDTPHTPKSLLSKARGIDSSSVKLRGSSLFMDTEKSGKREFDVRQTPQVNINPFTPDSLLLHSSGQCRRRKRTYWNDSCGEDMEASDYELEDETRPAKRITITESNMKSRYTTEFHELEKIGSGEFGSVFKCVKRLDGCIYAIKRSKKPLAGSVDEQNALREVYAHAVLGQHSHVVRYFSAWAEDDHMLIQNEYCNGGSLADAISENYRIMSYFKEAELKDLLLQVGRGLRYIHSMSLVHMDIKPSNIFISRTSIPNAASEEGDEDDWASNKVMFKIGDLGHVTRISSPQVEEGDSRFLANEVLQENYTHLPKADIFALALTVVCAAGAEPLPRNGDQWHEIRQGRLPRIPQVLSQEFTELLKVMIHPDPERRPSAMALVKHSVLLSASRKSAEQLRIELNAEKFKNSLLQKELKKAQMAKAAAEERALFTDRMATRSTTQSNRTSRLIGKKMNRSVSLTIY

[9] = molecular target: T1, Dual specificity mitogen-activated protein kinase kinase 4 (Homo sapiens) (UniProt P45985); assay: Inhibition of MEK4 (unknown origin) at 10 uM by Ambit Kinomescan binding assay
T1 sequence (whole entry): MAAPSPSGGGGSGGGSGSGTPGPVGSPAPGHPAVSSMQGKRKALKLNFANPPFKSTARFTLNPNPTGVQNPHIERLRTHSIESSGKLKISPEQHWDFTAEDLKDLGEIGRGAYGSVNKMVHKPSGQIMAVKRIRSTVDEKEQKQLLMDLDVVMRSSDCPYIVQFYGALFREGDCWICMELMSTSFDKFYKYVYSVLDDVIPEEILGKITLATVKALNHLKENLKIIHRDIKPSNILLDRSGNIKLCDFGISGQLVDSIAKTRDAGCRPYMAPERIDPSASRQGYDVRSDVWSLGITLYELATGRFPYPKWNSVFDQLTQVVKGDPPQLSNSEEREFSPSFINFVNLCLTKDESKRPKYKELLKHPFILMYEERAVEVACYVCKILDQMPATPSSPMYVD

[10] = system: Tyrosine-protein kinase ABL1 (Homo sapiens), P00519 [Q252H]; assay: Inhibition of ABL1 Q252H mutant (unknown origin) at 10 uM by Ambit Kinomescan binding assay relative to control
[11] = molecular target: Serine/threonine-protein kinase WNK2 (Homo sapiens) (UniProt Q9Y3S1); assay: Inhibition of Wnk2 ACT labeling site in human Huh-7 cells at 1 uM by KiNativ Profiling analysis relative to control; type: cell-based
[12] = molecular target: T2, EKC/KEOPS complex subunit TP53RK (Homo sapiens) (UniProt Q96S44); assay: Inhibition of PRPK ATP labeling site in human Huh-7 cell lysate at 1 uM by KiNativ Profiling analysis relative to control; type: subcellular
T2 sequence (whole entry): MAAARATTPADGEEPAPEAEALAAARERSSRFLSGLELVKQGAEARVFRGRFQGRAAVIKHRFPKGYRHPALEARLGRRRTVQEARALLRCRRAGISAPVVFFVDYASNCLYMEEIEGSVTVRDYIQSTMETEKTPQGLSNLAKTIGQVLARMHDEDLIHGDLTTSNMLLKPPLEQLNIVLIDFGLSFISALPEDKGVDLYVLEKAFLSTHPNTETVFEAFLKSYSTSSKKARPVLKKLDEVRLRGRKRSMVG

[13] = molecular target: T1, Dual specificity mitogen-activated protein kinase kinase 4 (Homo sapiens); assay: Inhibition of MAP2K4 ACT labeling site in human Huh-7 cell lysate at 1 uM by KiNativ Profiling analysis relative to control; type: subcellular
[14] = molecular target: MAP/microtubule affinity-regulating kinase 4 (Homo sapiens) (UniProt Q96L34); assay: Inhibition of MARK4 (unknown origin) at 1 uM by Ambit Kinomescan binding assay relative to control
[15] = molecular target: T3, Aurora kinase C (Homo sapiens) (UniProt Q9UQB9); assay: Inhibition of AURKC (unknown origin) at 1 uM by Ambit Kinomescan binding assay relative to control; values are per cent of control
T3 sequence (whole entry): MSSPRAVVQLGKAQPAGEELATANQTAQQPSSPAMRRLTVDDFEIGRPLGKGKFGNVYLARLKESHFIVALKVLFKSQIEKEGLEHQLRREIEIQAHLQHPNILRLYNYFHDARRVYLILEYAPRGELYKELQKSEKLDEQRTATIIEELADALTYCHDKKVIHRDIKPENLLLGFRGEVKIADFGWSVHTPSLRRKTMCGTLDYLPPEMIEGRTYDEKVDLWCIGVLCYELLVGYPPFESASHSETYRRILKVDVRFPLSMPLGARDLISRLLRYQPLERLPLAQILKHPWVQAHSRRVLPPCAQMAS

[16] = molecular target: 5'-AMP-activated protein kinase catalytic subunit alpha-1 (Homo sapiens) (UniProt Q13131); assay: Inhibition of AMPKa1 ATP Loop labeling site in human A-375 cells at 5 uM by KiNativ Profiling analysis relative to control; type: cell-based
5'-AMP-activated protein kinase catalytic subunit alpha-1 (Homo sapiens), sequence (Q13131 whole entry, looked up): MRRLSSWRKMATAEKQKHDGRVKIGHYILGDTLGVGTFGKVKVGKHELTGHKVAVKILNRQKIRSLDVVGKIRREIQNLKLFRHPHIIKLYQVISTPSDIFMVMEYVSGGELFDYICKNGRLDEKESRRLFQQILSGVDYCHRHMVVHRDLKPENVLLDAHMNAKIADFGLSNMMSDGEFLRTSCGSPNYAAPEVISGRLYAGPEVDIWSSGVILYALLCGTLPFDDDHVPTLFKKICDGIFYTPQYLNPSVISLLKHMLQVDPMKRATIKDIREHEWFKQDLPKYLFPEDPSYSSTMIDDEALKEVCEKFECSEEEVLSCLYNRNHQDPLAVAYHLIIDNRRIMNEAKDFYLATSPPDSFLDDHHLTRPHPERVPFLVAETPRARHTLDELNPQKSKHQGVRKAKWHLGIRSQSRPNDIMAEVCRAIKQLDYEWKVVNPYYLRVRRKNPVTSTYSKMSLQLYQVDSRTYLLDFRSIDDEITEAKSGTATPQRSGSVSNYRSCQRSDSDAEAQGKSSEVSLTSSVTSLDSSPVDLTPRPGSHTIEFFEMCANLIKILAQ

[17] = molecular target: Cyclin-dependent kinase 7 (Homo sapiens) (UniProt P50613); assay: Inhibition of CDK7 Lys2 labeling site in human A-375 cells at 0.5 uM by KiNativ Profiling analysis relative to control; type: cell-based
Cyclin-dependent kinase 7 (Homo sapiens), sequence (P50613 whole entry): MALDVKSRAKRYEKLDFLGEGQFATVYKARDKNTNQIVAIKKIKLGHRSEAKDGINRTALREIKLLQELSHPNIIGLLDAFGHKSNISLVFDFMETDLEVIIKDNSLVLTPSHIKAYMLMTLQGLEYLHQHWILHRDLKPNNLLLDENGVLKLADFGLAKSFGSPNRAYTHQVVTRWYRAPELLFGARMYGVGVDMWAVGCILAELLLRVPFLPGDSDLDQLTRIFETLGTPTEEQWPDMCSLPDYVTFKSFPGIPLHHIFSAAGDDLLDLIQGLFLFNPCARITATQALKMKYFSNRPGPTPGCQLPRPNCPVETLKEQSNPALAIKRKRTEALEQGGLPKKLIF

[18] = molecular target: Dual specificity testis-specific protein kinase 1 (Homo sapiens) (UniProt Q15569); assay: Inhibition of TESK1 (unknown origin) at 1 uM by Ambit Kinomescan binding assay relative to control
Dual specificity testis-specific protein kinase 1 (Homo sapiens), sequence (Q15569 whole entry, looked up): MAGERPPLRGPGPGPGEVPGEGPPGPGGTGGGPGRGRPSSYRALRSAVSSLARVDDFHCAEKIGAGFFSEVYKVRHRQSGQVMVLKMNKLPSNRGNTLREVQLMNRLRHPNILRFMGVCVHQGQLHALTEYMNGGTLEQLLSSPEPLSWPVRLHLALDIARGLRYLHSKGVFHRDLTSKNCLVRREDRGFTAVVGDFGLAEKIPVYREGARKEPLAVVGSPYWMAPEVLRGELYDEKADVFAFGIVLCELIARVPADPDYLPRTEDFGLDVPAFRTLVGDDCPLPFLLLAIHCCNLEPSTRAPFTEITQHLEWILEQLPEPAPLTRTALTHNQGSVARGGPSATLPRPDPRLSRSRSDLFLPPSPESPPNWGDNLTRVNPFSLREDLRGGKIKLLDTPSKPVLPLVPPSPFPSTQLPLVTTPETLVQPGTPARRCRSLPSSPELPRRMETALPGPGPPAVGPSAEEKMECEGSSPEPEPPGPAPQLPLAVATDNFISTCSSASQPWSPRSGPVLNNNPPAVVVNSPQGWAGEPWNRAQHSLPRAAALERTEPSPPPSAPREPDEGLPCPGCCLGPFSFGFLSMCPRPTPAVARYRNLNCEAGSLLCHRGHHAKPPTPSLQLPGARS

[19] = molecular target: Tyrosine-protein kinase BTK (Homo sapiens) (UniProt Q06187); assay: Inhibition of BTK (unknown origin) at 1 uM by Ambit Kinomescan binding assay relative to control
Tyrosine-protein kinase BTK (Homo sapiens), sequence (Q06187 whole entry): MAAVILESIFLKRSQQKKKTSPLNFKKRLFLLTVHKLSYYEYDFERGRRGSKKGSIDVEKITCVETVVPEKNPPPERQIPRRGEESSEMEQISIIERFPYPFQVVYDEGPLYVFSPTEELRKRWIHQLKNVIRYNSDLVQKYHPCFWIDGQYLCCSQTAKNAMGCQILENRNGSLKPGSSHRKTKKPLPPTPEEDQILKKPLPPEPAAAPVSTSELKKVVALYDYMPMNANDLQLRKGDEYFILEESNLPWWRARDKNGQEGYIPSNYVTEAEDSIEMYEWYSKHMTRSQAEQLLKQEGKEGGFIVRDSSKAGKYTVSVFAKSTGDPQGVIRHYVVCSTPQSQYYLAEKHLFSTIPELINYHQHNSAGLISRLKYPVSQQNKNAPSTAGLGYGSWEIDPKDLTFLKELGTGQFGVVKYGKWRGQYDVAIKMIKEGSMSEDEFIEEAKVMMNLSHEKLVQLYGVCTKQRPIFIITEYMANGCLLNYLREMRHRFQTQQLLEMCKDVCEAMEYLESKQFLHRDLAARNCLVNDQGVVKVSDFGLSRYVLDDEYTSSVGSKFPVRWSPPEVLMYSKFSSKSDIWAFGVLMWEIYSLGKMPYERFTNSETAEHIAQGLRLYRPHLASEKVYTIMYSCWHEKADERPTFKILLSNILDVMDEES

[20] = molecular target: Serine/threonine-protein kinase DCLK1 (Homo sapiens) (UniProt O15075); assay: Inhibition of DCAMKL1 (unknown origin) at 1 uM by Ambit Kinomescan binding assay relative to control
Serine/threonine-protein kinase DCLK1 (Homo sapiens), sequence (O15075 whole entry): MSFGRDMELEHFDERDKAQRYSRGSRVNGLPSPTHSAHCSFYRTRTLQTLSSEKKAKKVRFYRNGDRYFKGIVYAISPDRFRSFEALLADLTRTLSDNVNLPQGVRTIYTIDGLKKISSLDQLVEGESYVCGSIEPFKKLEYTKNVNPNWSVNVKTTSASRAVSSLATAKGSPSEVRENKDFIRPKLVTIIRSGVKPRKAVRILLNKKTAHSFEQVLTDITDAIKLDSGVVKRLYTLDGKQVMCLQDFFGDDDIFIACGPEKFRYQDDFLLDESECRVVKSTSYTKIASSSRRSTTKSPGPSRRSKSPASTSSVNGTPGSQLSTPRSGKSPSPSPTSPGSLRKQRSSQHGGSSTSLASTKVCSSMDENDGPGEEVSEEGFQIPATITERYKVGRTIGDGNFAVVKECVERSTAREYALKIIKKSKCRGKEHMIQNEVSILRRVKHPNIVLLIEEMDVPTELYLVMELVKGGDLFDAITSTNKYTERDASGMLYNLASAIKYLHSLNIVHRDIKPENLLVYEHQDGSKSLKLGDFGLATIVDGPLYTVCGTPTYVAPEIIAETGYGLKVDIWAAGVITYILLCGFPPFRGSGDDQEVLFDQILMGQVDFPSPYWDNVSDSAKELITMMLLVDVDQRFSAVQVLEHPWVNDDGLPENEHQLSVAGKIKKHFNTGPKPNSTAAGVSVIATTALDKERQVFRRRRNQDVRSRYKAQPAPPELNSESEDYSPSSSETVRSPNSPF

[21] = molecular target: Wee1-like protein kinase 2 (Homo sapiens) (UniProt P0C1S8); assay: Inhibition of WEE2 (unknown origin) at 1 uM by Ambit Kinomescan binding assay relative to control
Wee1-like protein kinase 2 (Homo sapiens), sequence (P0C1S8 whole entry, looked up, the tested form may be a part): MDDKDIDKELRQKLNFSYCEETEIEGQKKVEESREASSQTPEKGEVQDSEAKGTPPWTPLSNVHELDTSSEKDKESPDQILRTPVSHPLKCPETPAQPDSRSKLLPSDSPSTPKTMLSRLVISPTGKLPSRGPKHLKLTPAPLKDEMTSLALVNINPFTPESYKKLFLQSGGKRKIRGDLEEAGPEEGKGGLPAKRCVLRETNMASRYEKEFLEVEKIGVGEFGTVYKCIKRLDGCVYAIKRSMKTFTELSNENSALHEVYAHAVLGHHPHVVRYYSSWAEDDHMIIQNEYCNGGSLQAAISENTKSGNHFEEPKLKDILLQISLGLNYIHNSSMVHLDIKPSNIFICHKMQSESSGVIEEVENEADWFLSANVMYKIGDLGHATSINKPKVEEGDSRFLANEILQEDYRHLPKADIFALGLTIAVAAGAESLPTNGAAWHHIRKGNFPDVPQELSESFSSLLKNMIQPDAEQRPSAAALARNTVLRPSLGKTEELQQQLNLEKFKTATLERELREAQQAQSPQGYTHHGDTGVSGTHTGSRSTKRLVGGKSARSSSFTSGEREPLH

[22] = molecular target: eIF-2-alpha kinase GCN2 (Homo sapiens) (UniProt Q9P2K8); assay: Inhibition of GCN2 domain2 Lys1 labeling site in human A-375 cells at 0.05 uM by KiNativ Profiling analysis relative to control; type: cell-based

## CCN1CCN(Cc2ccc(NC(=O)c3ccc(C)c(Oc4ccnc5[nH]ccc45)c3)cc2C(F)(F)F)CC1
[1]
  inhibition: 16%
[2]
  inhibition at 10 µM: -6.7%
[3]
  inhibition: inactive
[4]
  inhibition: inactive
[5]
  inhibition: -6.1%
[6]
  inhibition: -0.3%
[7]
  inhibition: inactive
[8]
  inhibition: 1.5%
[9]
  inhibition: inactive
[10]
  inhibition: 0.4%

## CNc1cc(Oc2cc(C(=O)Nc3cc(N4CCN(C)CC4)cc(C(F)(F)F)c3)ccc2C)ncn1
[11]
  inhibition: 21.6%
[12]
  inhibition: -6%
[13]
  inhibition: -2.8%

## CCN1CCN(Cc2ccc(NC(=O)c3ccc(C)c(/C=C/c4cnc5[nH]ccc5c4OC)c3)cc2C(F)(F)F)CC1
[14]
  inhibition: 81%
[15]
  residual activity: 34%
[16]
  inhibition: 9.1%
[17]
  inhibition: 36.2%
[18]
  inhibition: 100%
[19]
  inhibition: 10%
[20]
  inhibition: 100%
[21]
  inhibition: 74%
[22]
  inhibition: 4.6%
